# Columns and labels:
# [1] = system: M. tuberculosis H37Rv; assay: MIC by microplate alamarBlue assay (MABA); format: cell-based, Mycobacterium tuberculosis; conditions: for MIC: Mycobacterium tuberculosis, H37RV
# [2] = cited from earlier work
# [3] = system: M. tuberculosis susceptible strain 14242; assay: MIC by microplate alamarBlue assay (MABA); format: cell-based, Mycobacterium tuberculosis; conditions: for MIC: Mycobacterium tuberculosis
# [4] = system: M. tuberculosis susceptible strain 14286; assay: MIC by microplate alamarBlue assay (MABA); format: cell-based, Mycobacterium tuberculosis; conditions: for MIC: Mycobacterium tuberculosis
# [5] = system: M. tuberculosis susceptible strain 14242; assay: MBC determination (CFU-based); conditions: 7 days incubation, 3 log10 CFU decrease
# [6] = system: M. tuberculosis H37Rv; assay: MBC determination (CFU-based); conditions: 7 days incubation, 3 log10 CFU decrease
# [7] = system: M. tuberculosis susceptible strain 14280; assay: MIC by microplate alamarBlue assay (MABA); format: cell-based, Mycobacterium tuberculosis; conditions: for MIC: Mycobacterium tuberculosis
# [8] = system: M. tuberculosis susceptible strain 14480; assay: MIC by microplate alamarBlue assay (MABA); format: cell-based, Mycobacterium tuberculosis; conditions: for MIC: Mycobacterium tuberculosis
# [9] = system: M. tuberculosis susceptible strain 14241; assay: MIC by microplate alamarBlue assay (MABA); format: cell-based, Mycobacterium tuberculosis; conditions: for MIC: Mycobacterium tuberculosis
# [10] = Pharmacokinetic study in mice; format: in vivo, BALB/c mice; conditions: Mice; for AUC(0-inf): read-out: AUC0-inf; for AUC(0-t): read-out: AUC0-last; for half-life: plasma; for At 96 h lung/plasma: lung: lung exposure at 96 h (first number of the pair); for At 96 h lung/plasma: plasma: plasma exposure at 96 h (second number of the pair)
# Description: (§1) The BALB/c mice, rats, and beagle dogs were used in the PK study and fasted overnight before dosing. Animal doses were administered in two ways. […] Plasma samples were collected from three animals at each time point. Plasma concentrations were determined by liquid chromatography-tandem mass spectrometry (LC-MS/MS). The bioanalytical method by LC-MS/MS for pharmacokinetic (PK) studies in animal and toxicokinetic (TK) in tox studies have been validated. The total area under the concentration-time curve (AUC0-inf), the elimination half-time (t1/2), the peak concentration (Cmax), and the time to reach peak concentration (Tmax) of samples were determined directly from the experimental data using WinNonlin V6.2.1.
# [11] = Pharmacokinetic study in rats; format: in vivo, rat; conditions: Rat; for At 96 h lung/plasma: lung: lung exposure at 96 h (first number of the pair); for At 96 h lung/plasma: plasma: plasma exposure at 96 h (second number of the pair); for AUC(0-inf): read-out: AUC0-inf; for AUC(0-t): read-out: AUC0-last; for half-life: plasma
# Description: as §1
# [12] = biological target: T1, human ether-á-go-go-related (hERG) ion channel (Homo sapiens, UniProt Q12809); assay: hERG manual patch-clamp assay in hERG-CHO cell; format: cell-based
# T1 construct: expressed in transfected cells; host or cells: hERG-CHO cell (CHO cells expressing hERG)
# T1 sequence (Q12809 whole entry): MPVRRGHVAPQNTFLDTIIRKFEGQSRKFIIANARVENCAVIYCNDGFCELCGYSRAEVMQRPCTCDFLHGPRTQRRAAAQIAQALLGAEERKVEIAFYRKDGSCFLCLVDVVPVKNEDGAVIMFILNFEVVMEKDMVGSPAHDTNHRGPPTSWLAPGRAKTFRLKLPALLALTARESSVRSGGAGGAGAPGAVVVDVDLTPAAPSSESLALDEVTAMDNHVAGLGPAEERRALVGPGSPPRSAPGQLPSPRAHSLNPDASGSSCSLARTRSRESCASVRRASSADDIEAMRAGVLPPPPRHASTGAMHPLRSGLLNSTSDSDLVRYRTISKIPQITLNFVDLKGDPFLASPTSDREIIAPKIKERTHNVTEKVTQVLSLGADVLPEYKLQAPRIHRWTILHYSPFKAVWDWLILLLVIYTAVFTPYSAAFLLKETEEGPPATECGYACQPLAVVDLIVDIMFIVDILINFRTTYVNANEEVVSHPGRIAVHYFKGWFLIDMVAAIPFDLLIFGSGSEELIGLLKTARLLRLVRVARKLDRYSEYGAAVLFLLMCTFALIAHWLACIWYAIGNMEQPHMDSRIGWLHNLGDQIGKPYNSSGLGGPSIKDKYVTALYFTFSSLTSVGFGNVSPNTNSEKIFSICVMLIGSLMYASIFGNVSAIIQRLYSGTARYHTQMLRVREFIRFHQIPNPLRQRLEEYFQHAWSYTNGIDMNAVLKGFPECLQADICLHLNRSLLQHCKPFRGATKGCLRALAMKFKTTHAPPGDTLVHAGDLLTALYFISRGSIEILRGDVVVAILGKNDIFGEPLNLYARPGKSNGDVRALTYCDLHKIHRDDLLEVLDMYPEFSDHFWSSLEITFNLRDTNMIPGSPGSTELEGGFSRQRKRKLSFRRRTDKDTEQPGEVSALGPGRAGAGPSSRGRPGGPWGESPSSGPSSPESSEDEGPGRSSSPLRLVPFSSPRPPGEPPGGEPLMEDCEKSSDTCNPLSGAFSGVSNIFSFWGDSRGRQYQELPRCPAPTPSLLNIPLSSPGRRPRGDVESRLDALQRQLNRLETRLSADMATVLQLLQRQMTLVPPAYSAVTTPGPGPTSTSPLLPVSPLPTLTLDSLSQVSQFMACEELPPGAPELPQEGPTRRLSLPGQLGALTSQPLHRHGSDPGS
# Description: A human ether-á-go-go-related (hERG) ion channel in vitro assay was performed in Shanghai Institute of Materia Medica, Shanghai, for the evaluation of cardiac liability testing. The assay was a manual patch-clamp method using electrophysiology in an hERG-CHO cell.
# [13] = 14-day repeated oral dose toxicity and toxicokinetic head-to-head study in beagle dogs; format: in vivo, beagle dog; conditions: 14 days; for ECG: QT interval / cTnI: 200 mg/kg; for cTnI: one of three males, all others BLQ
# [14] = BALB/c, mouse, in vivo, Iv. 1.0 mg/kg
# [15] = BALB/c, mouse, in vivo, Po. 6.25 mg/kg
# [16] = beagle dogs, 200 mg/kg oral, listed as bedaquiline fumarate
compound,measurement,setting,value
"COc1nc2ccc(Br)cc2cc1[C@@H](c1ccccc1)[C@@](O)(CCN(C)C)c1cccc2ccccc12 [BDQ, bedaquiline]",MIC,[1],0.012 µg/mL
same,elimination half-life,[2],5.5 months
same,MIC,[3],0.031 µg/mL
same,MIC,[4],0.043 µg/mL
same,MBCs,[5],0.156 µg/mL
same,MBCs,[6],0.156 µg/mL
same,MIC,[7],0.053 µg/mL
same,MIC,[8],0.037 µg/mL
same,MIC,[9],0.029 µg/mL
same,AUC(0-inf),[10]; [14],2160 ng·h/mL
same,AUC(0-t),[10]; [14],2100 ng·h/mL
same,Vd,"[10]; BALB/c, mouse, in vivo, Iv. 1.0 mg/kg, read-out: Vdss",6.21 L/kg
same,AUC(0-inf),[10]; [15],6360 ng·h/mL
same,AUC(0-t),[10]; [15],6040 ng·h/mL
same,Cmax,"[10]; BALB/c, mouse, in vivo, Po. 6.25 mg/kg, read-out: Cmax",608 ng/mL
same,bioavailability,"[10]; BALB/c, mouse, in vivo, Po. 6.25 mg/kg, read-out: F",47.1%
same,Tmax,"[10]; BALB/c, mouse, in vivo, Po. 6.25 mg/kg, read-out: Tmax",5.33 h
same,half-life,"[10]; BALB/c, mouse, Iv. 1.0 mg/kg",21.3 h
same,half-life,"[10]; BALB/c, mouse, Po. 6.25 mg/kg",47.6 h
same,At 96 h lung/plasma: lung,[10]; Iv. 1.0 mg/kg,27.1
same,At 96 h lung/plasma: plasma,[10]; Iv. 1.0 mg/kg,1.31
same,At 96 h lung/plasma: lung,[10]; Po. 6.25 mg/kg,135
same,At 96 h lung/plasma: plasma,[10]; Po. 6.25 mg/kg,4.56
same,At 96 h lung/plasma: lung,[11]; Iv. 1.0 mg/kg,62.9
same,At 96 h lung/plasma: plasma,[11]; Iv. 1.0 mg/kg,1.89
same,At 96 h lung/plasma: lung,[11]; Po. 5.0 mg/kg,58.8
same,At 96 h lung/plasma: plasma,[11]; Po. 5.0 mg/kg,1.52
same,AUC(0-inf),"[11]; in vivo, Iv. 1.0 mg/kg",1930 ng·h/mL
same,AUC(0-t),"[11]; in vivo, Iv. 1.0 mg/kg",1830 ng·h/mL
same,Vd,"[11]; in vivo, Iv. 1.0 mg/kg, read-out: Vdss",10.3 L/kg
same,AUC(0-inf),"[11]; in vivo, Po. 5.0 mg/kg",2680 ng·h/mL
same,AUC(0-t),"[11]; in vivo, Po. 5.0 mg/kg",2610 ng·h/mL
same,Cmax,"[11]; in vivo, Po. 5.0 mg/kg, read-out: Cmax",354 ng/mL
same,bioavailability,"[11]; in vivo, Po. 5.0 mg/kg, read-out: F",27.7%
same,Tmax,"[11]; in vivo, Po. 5.0 mg/kg, read-out: Tmax",0.83 h
same,half-life,[11]; Iv. 1.0 mg/kg,37.6 h
same,half-life,[11]; Po. 5.0 mg/kg,29.3 h
CNCC[C@@](O)(c1cccc2ccccc12)[C@H](c1ccccc1)c1cc2cc(Br)ccc2nc1OC [BDQ-M2],IC50,[12]; metabolites,1.73 µM
"COc1nc2ccc(Br)cc2cc1[C@@H](c1ccccc1)[C@@](O)(CCN(C)C)c1cccc2ccccc12.O=C(O)/C=C/C(=O)O [Bedaquiline fumarate, bedaquiline fumarate]",IC50,[12]; parent compound,> 30 µM
same,mortality and moribundity,"[13]; 200 mg/kg oral once daily, male and female dogs",did not result in mortality and moribundity
same,ECG: HR,"[13]; beagle dogs, 200 mg/kg oral",An increased incidence of first- and second-degree atrioventricular block
same,qualitative ECG changes associated with oral administration,"[13]; beagle dogs, 200 mg/kg oral",increased incidence of first and second-degree atrioventricular (AV) block
same,ECG: QT interval,"[13]; beagle dogs, 200 mg/kg oral",Significant QT interval prolongation
same,ECG: QT interval,[13]; [16],significant QTc interval prolongation
same,cTnI,"[13]; beagle dogs, 200 mg/kg oral",440 (1/3 male) pg/mL
same,cTnI,[13]; [16],440 pg/mL
"NNC(=O)c1ccncc1 [INH, isoniazid]",MIC,[1],0.031 µg/mL
same,MIC,[3],0.028 µg/mL
same,MIC,[4],0.03 µg/mL
same,MIC,[7],0.024 µg/mL
same,MIC,[8],< 0.02 µg/mL
same,MIC,[9],0.034 µg/mL
"NC[C@H]1O[C@H](O[C@H]2[C@H](O)[C@@H](O[C@H]3O[C@H](CO)[C@@H](O)[C@H](N)[C@H]3O)[C@H](N)C[C@@H]2N)[C@H](O)[C@@H](O)[C@@H]1O [KM, kanamycin]",MICs,[1]; H37Rv,0.730 µg/mL
same,MICs,[3],1.146 µg/mL
same,MICs,[4],1.154 µg/mL
same,MICs,[7],1.219 µg/mL
same,MICs,[8],1.907 µg/mL
same,MICs,[9],2.417 µg/mL
"COc1c(N2C[C@@H]3CCCN[C@@H]3C2)c(F)cc2c(=O)c(C(=O)O)cn(C3CC3)c12 [MFX, moxifloxacin]",MIC,[1],0.045 µg/mL
same,MIC,[3],0.037 µg/mL
same,MIC,[4],0.039 µg/mL
same,MIC,[7],0.035 µg/mL
same,MIC,[9],0.122 µg/mL
"CO[C@H]1/C=C/O[C@@]2(C)Oc3c(C)c(O)c4c(O)c(c(/C=N/N5CCN(C)CC5)c(O)c4c3C2=O)NC(=O)/C(C)=C\C=C\[C@H](C)[C@H](O)[C@@H](C)[C@@H](O)[C@@H](C)[C@H](OC(C)=O)[C@@H]1C [RFP, rifampicin]",MIC,[1],0.014 µg/mL
same,MIC,[3],0.066 µg/mL
same,MIC,[4],< 0.02 µg/mL
same,MIC,[7],0.057 µg/mL
same,MIC,[8],0.046 µg/mL
same,MIC,[9],0.035 µg/mL

# From paper PMC8849072, “Sudapyridine (WX-081), a Novel Compound against Mycobacterium tuberculosis” (Microbiology Spectrum, 2022)
